Measured values reported in patent publication EP4745137A1 (Gluetacs Therapeutics (Shanghai) Co., Ltd., priority 2023, dated 2025).

How the values were obtained:
Assay type in all cases: cell-based
Details in all cases: 24 hours of compound treatment
IKZF3 = target: T1, IKZF3 (Homo sapiens, UniProt Q96SW2+Q9UKT9); assay: Western-blot assay of substrate protein degradation in hPBMCs, IKZF3
T1 construct: endogenous in cells; host or cells: hPBMCs (Milecell Biotechnologies)

IKZF2 = target: T2, IKZF2 (Homo sapiens, UniProt Q96SW2+Q9UKS7); assay: Western-blot assay of substrate protein degradation in hPBMCs, IKZF2
T2 construct: endogenous in cells; host or cells: hPBMCs (Milecell Biotechnologies)

GSPT1 = target: T3, GSPT1 (Homo sapiens, UniProt P15170+Q96SW2); assay: Western-blot assay of substrate protein degradation in hPBMCs, GSPT1
T3 construct: endogenous in cells; host or cells: hPBMCs (Milecell Biotechnologies)
T3 sequence (P15170 whole entry): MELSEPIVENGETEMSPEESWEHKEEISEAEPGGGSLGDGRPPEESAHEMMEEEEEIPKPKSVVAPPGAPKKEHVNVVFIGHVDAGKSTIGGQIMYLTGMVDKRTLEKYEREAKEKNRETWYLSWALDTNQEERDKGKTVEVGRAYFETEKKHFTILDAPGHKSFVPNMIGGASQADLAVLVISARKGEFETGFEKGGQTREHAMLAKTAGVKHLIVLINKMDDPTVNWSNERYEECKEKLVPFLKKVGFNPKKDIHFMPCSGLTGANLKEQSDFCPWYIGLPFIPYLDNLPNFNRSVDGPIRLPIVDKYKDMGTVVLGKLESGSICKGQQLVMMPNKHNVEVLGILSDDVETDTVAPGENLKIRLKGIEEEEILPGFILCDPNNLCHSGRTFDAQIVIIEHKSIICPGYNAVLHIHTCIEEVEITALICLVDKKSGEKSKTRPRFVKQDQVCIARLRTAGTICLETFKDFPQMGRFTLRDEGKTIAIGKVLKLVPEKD
T3 sequence (Q96SW2 whole entry): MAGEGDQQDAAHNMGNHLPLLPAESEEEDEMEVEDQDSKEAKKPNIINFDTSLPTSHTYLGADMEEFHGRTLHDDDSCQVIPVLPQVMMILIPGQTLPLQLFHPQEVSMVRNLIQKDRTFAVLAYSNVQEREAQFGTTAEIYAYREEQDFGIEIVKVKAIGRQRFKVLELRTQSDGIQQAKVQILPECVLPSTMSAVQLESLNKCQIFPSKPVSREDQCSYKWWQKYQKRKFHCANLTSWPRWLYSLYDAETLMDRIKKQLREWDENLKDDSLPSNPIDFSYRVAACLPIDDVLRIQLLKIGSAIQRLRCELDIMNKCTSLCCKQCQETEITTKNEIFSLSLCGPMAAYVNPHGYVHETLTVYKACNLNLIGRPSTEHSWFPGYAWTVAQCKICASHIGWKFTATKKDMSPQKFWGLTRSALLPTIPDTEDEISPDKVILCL
T3 sequence (Q16531 whole entry partner): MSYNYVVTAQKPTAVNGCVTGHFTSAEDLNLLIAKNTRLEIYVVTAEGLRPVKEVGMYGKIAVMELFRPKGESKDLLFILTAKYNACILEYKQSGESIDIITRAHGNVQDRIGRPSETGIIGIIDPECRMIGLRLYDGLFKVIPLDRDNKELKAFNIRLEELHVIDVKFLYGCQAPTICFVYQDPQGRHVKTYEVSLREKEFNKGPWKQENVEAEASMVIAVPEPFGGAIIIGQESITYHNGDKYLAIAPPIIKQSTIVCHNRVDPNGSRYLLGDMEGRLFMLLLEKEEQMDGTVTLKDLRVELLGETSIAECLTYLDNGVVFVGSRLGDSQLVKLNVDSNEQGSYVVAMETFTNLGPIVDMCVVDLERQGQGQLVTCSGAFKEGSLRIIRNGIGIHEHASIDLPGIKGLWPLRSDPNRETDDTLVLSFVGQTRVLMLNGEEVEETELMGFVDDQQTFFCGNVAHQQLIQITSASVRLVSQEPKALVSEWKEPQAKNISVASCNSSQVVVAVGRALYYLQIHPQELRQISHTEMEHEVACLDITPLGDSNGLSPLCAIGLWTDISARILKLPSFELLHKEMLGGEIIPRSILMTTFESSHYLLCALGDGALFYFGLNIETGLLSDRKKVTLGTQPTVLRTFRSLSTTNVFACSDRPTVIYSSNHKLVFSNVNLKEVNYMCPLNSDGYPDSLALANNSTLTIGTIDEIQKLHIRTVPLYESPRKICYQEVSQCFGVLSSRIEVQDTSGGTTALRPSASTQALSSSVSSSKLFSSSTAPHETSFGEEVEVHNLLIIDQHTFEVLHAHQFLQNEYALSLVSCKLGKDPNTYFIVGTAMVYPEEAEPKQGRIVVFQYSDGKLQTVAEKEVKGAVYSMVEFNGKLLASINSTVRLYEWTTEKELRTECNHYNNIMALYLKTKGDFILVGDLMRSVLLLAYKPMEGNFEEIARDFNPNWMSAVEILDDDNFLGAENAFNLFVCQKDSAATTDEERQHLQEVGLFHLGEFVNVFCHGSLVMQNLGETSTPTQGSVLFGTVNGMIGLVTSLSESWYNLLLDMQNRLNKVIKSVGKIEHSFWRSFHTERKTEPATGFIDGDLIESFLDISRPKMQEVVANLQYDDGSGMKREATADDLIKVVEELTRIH

CK1α = target: T4, CK1α (Homo sapiens, UniProt P48729+Q96SW2); assay: Western-blot assay of substrate protein degradation in hPBMCs, CK1α
T4 construct: endogenous in cells; host or cells: hPBMCs (Milecell Biotechnologies)
T4 sequence (P48729 whole entry): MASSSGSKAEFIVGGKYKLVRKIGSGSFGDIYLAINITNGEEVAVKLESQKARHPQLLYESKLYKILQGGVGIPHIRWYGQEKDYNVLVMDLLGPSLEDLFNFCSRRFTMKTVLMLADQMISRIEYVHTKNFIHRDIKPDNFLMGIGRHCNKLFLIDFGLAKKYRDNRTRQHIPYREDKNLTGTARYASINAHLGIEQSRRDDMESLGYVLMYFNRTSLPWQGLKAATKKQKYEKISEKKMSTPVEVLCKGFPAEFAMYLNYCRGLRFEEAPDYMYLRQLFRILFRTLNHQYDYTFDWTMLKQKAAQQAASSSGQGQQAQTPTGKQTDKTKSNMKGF
T4 sequence (Q96SW2 whole entry): as the sequence (Q96SW2 whole entry) above
T4 sequence (Q16531 whole entry partner): as the sequence (Q16531 whole entry partner) above

IKZF1 = target: T5, IKZF1 (Homo sapiens, UniProt Q13422+Q96SW2); assay: Western-blot assay of substrate protein degradation in hPBMCs, IKZF1
T5 construct: endogenous in cells; host or cells: hPBMCs (Milecell Biotechnologies)
T5 sequence (Q13422 whole entry): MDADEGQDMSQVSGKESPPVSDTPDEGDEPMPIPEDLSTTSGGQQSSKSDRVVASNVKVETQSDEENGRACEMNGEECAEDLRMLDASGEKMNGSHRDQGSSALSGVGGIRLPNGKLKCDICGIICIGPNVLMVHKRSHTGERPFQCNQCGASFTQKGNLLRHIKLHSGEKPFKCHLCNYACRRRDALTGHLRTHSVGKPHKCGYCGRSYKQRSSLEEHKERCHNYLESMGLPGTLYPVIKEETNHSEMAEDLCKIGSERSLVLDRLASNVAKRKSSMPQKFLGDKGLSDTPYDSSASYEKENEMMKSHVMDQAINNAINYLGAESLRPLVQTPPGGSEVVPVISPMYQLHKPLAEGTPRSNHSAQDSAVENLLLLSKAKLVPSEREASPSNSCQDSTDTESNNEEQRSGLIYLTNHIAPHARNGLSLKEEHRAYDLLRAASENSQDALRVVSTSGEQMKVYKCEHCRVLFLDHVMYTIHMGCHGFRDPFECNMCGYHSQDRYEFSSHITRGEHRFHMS
T5 sequence (Q96SW2 whole entry): as the sequence (Q96SW2 whole entry) above
T5 sequence (Q16531 whole entry partner): as the sequence (Q16531 whole entry partner) above

WEE1 = target: T6, WEE1 (Homo sapiens, UniProt P30291+Q96SW2); assay: Western-blot assay of substrate protein degradation in hPBMCs, WEE1
T6 construct: endogenous in cells; host or cells: hPBMCs (Milecell Biotechnologies)
T6 sequence (P30291 whole entry): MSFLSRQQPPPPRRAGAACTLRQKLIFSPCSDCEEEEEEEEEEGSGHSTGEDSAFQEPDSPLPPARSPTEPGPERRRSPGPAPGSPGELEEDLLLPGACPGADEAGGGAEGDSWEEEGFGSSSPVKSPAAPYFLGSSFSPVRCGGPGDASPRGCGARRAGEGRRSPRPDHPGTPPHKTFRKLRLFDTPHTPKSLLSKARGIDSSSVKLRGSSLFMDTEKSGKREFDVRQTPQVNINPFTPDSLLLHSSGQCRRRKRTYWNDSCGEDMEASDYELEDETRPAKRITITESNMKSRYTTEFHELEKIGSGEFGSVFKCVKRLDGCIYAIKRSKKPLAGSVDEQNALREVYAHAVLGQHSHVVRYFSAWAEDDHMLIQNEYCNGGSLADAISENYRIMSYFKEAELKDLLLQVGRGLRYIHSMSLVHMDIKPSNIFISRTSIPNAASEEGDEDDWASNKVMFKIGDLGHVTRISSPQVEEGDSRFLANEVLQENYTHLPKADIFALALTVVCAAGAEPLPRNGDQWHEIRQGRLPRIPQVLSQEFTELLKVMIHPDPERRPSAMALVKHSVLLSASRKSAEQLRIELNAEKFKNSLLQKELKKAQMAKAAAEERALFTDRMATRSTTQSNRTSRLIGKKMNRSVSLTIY
T6 sequence (Q96SW2 whole entry): as the sequence (Q96SW2 whole entry) above
T6 sequence (Q16531 whole entry partner): as the sequence (Q16531 whole entry partner) above

[1] = 50 nM and 500 nM tested (concentration behind the class not stated)
[2] = compounds tested at 50 nM and 500 nM (concentration of the table not stated)

T1 sequence (Q9UKT9 whole entry): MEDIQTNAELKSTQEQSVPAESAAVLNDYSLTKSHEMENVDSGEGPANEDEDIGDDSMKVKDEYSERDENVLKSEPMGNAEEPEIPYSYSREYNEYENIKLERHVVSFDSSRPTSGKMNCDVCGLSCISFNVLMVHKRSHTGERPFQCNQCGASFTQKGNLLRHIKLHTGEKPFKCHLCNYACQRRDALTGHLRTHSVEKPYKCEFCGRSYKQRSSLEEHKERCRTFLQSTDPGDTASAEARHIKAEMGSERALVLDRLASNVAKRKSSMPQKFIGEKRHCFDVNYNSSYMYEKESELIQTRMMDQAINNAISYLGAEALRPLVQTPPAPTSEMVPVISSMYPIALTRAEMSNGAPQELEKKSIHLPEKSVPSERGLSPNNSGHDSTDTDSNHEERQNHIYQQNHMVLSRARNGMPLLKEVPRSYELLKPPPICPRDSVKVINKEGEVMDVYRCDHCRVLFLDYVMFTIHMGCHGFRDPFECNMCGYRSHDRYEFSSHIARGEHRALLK
T1 sequence (Q96SW2 whole entry): as the sequence (Q96SW2 whole entry) above
T1 sequence (Q16531 whole entry partner): as the sequence (Q16531 whole entry partner) above

SMILES | IKZF3 substrate protein remaining % (IKZF3; [1]) | IKZF2 substrate protein remaining % (IKZF2; [1]) | GSPT1 substrate protein remaining % (GSPT1; [1]) | CK1a substrate protein remaining % (CK1α; [1]) | IKZF 1 substrate protein remaining % (IKZF1; [1]) | Weel substrate protein remaining % (WEE1; [1]) | IKZF3 substrate protein remaining % (IKZF3; [2]) | IKZF2 substrate protein remaining % (IKZF2; [2]) | GSPT1 substrate protein remaining % (GSPT1; [2]) | CK1a substrate protein remaining % (CK1α; [2]) | IKZF 1 substrate protein remaining % (IKZF1; [2]) | Weel substrate protein remaining % (WEE1; [2])
O=C1CCC(N2C(=O)c3ccc(CN4CC(N5CCc6cc(F)ccc65)C4)cc3C2=O)C(=O)N1 (stereo not drawn) [GT-06271, 2-(2,6-dioxopiperidin-3-yl)-5-((3-(5-fluoroindolin-1-yl)azetidin-1-yl)methyl)isoindoline-1,3-dione] | B (80%< substrate protein remaining %≤ 100%) | A (0% ≤ substrate protein remaining % ≤ 80%) | A (0% ≤ substrate protein remaining % ≤ 80%) | B (80%< substrate protein remaining %≤ 100%) | A (0% ≤ substrate protein remaining % ≤ 80%) | A (0% ≤ substrate protein remaining % ≤ 80%) | – | – | – | – | – | –
Cc1cccc(N2CCN(Cc3ccc4c(c3)C(=O)N(C3CCC(=O)NC3=O)C4=O)CC2)n1 (stereo not drawn) [GT-06522, 2-(2,6-dioxopiperidin-3-yl)-5-((4-(6-methylpyridin-2-yl)piperazin-1-yl)methyl)isoindoline-1,3-dione] | B (80%< substrate protein remaining %≤ 100%) | B (80%< substrate protein remaining %≤ 100%) | A (0% ≤ substrate protein remaining % ≤ 80%) | B (80%< substrate protein remaining %≤ 100%) | B (80%< substrate protein remaining %≤ 100%) | B (80%< substrate protein remaining %≤ 100%) | – | – | – | – | – | –
O=C1CCC(N2C(=O)c3ccc(CN4CCN(c5cccnn5)CC4)cc3C2=O)C(=O)N1 (stereo not drawn) [GT-07844, 2-(2,6-dioxopiperidin-3-yl)-5-((4-(pyridazin-3-yl)piperazin-1-yl)methyl)isoindoline-1,3-dione] | A (0% ≤ substrate protein remaining % ≤ 80%) | B (80%< substrate protein remaining %≤ 100%) | B (80%< substrate protein remaining %≤ 100%) | B (80%< substrate protein remaining %≤ 100%) | A (0% ≤ substrate protein remaining % ≤ 80%) | B (80%< substrate protein remaining %≤ 100%) | – | – | – | – | – | –
O=C1CCC(N2C(=O)c3ccc(CN4CCCC(C5CCNCC5)C4)cc3C2=O)C(=O)N1 (stereo not drawn) [GT-06881, 5-([3,4'-bipiperidin]-1-ylmethyl)-2-(2,6-dioxopiperidin-3-yl)isoindoline-1,3-dione] | B (80%< substrate protein remaining %≤ 100%) | B (80%< substrate protein remaining %≤ 100%) | A (0% ≤ substrate protein remaining % ≤ 80%) | A (0% ≤ substrate protein remaining % ≤ 80%) | B (80%< substrate protein remaining %≤ 100%) | B (80%< substrate protein remaining %≤ 100%) | – | – | – | – | – | –
O=C1CCC(N2C(=O)c3ccc(CN4CCN(c5ccc(C(F)(F)F)cn5)CC4)cc3C2=O)C(=O)N1 (stereo not drawn) [GT-06531, 2-(2,6-dioxopiperidin-3-yl)-5-((4-(5-(trifluoromethyl)pyridin-2-yl)piperazin-1-yl)methyl)isoindoline-1,3-dione] | B (80%< substrate protein remaining %≤ 100%) | B (80%< substrate protein remaining %≤ 100%) | A (0% ≤ substrate protein remaining % ≤ 80%) | B (80%< substrate protein remaining %≤ 100%) | B (80%< substrate protein remaining %≤ 100%) | B (80%< substrate protein remaining %≤ 100%) | – | – | – | – | – | –
O=C1CCC(N2C(=O)c3ccc(CN4C[C@H]5C[C@@H]4CN5c4cccc(Cl)c4Cl)cc3C2=O)C(=O)N1 (stereo partly drawn) [GT-06690, 5-(((1R,4R)-5-(2,3-dichlorophenyl)-2,5-diazabicyclo[2.2.1]heptan-2-yl)methyl)-2-(2,6-dioxopiperidin-3-yl)isoindoline-1,3-dione] | A (0% ≤ substrate protein remaining % ≤ 80%) | B (80%< substrate protein remaining %≤ 100%) | A (0% ≤ substrate protein remaining % ≤ 80%) | B (80%< substrate protein remaining %≤ 100%) | B (80%< substrate protein remaining %≤ 100%) | B (80%< substrate protein remaining %≤ 100%) | – | – | – | – | – | –
O=C1CCC(N2C(=O)c3ccc(CN4CCC(n5c(=O)[nH]c6cc(F)ccc65)CC4)cc3C2=O)C(=O)N1 (stereo not drawn) [GT-06704, 2-(2,6-dioxopiperidin-3-yl)-5-((4-(5-fluoro-2-oxo-2,3-dihydro-1H-benzo[d]imidazol-1-yl)piperidin-1-yl)methyl)isoindoline-1,3-dione] | A (0% ≤ substrate protein remaining % ≤ 80%) | B (80%< substrate protein remaining %≤ 100%) | A (0% ≤ substrate protein remaining % ≤ 80%) | B (80%< substrate protein remaining %≤ 100%) | B (80%< substrate protein remaining %≤ 100%) | B (80%< substrate protein remaining %≤ 100%) | – | – | – | – | – | –
O=C1CCC(N2C(=O)c3ccc(CN4CCN(c5ccccc5)CC4)cc3C2=O)C(=O)N1 (stereo not drawn) [GT-06286, 2-(2,6-dioxopiperidin-3-yl)-5-((4-phenylpiperazin-1-yl)methyl)isoindoline-1,3-dione] | B (80%< substrate protein remaining %≤ 100%) | B (80%< substrate protein remaining %≤ 100%) | A (0% ≤ substrate protein remaining % ≤ 80%) | B (80%< substrate protein remaining %≤ 100%) | B (80%< substrate protein remaining %≤ 100%) | B (80%< substrate protein remaining %≤ 100%) | – | – | – | – | – | –
O=C1CCC(N2C(=O)c3ccc(CN4CCC(c5ccccc5)CC4)cc3C2=O)C(=O)N1 (stereo not drawn) [GT-06368, 2-(2,6-dioxopiperidin-3-yl)-5-((4-phenylpiperidin-1-yl)methyl)isoindoline-1,3-dione] | A (0% ≤ substrate protein remaining % ≤ 80%) | A (0% ≤ substrate protein remaining % ≤ 80%) | A (0% ≤ substrate protein remaining % ≤ 80%) | A (0% ≤ substrate protein remaining % ≤ 80%) | B (80%< substrate protein remaining %≤ 100%) | A (0% ≤ substrate protein remaining % ≤ 80%) | – | – | – | – | – | –
O=C1CCC(N2C(=O)c3ccc(CN4CCC(N5C(=O)COc6cc(F)ccc65)CC4)cc3C2=O)C(=O)N1 (stereo not drawn) [GT-06236, 2-(2,6-dioxopiperidin-3-yl)-5-((4-(7-fluoro-3-oxo-2,3-dihydro-4H-benzo[b][1,4]oxazin-4-yl)piperidin-1-yl)methyl)isoindoline-1,3-dione] | – | – | – | – | – | – | B (80%< substrate protein remaining %≤ 100%) | A (0% ≤ substrate protein remaining % ≤ 80%) | A (0% ≤ substrate protein remaining % ≤ 80%) | B (80%< substrate protein remaining %≤ 100%) | B (80%< substrate protein remaining %≤ 100%) | B (80%< substrate protein remaining %≤ 100%)
O=C1CCC(N2C(=O)c3ccc(CN4C[C@@H]5C[C@H]4CN5c4cccc(Cl)c4Cl)cc3C2=O)C(=O)N1 (stereo partly drawn) [GT-06691, 5-(((1S,4S)-5-(2,3-dichlorophenyl)-2,5-diazabicyclo[2.2.1]heptan-2-yl)methyl)-2-(2,6-dioxopiperidin-3-yl)isoindoline-1,3-dione] | B (80%< substrate protein remaining %≤ 100%) | A (0% ≤ substrate protein remaining % ≤ 80%) | A (0% ≤ substrate protein remaining % ≤ 80%) | B (80%< substrate protein remaining %≤ 100%) | B (80%< substrate protein remaining %≤ 100%) | A (0% ≤ substrate protein remaining % ≤ 80%) | – | – | – | – | – | –
Cc1cc(C2=CCN(Cc3ccc4c(c3)C(=O)N(C3CCC(=O)NC3=O)C4=O)CC2)cs1 (stereo not drawn) [GT-06279, 2-(2,6-dioxopiperidin-3-yl)-5-((4-(5-methylthiophen-3-yl)-3,6-dihydropyridin-1(2H)-yl)methyl)isoindoline-1,3-dione] | A (0% ≤ substrate protein remaining % ≤ 80%) | A (0% ≤ substrate protein remaining % ≤ 80%) | A (0% ≤ substrate protein remaining % ≤ 80%) | A (0% ≤ substrate protein remaining % ≤ 80%) | A (0% ≤ substrate protein remaining % ≤ 80%) | A (0% ≤ substrate protein remaining % ≤ 80%) | – | – | – | – | – | –
O=C1CCC(N2C(=O)c3ccc(CN4CC=C(c5cccc6cnccc56)CC4)cc3C2=O)C(=O)N1 (stereo not drawn) [GT-06268, 2-(2,6-dioxopiperidin-3-yl)-5-((4-(isoquinolin-5-yl)-3,6-dihydropyridin-1(2H)-yl)methyl)isoindoline-1,3-dione] | – | – | – | – | – | – | A (0% ≤ substrate protein remaining % ≤ 80%) | A (0% ≤ substrate protein remaining % ≤ 80%) | A (0% ≤ substrate protein remaining % ≤ 80%) | A (0% ≤ substrate protein remaining % ≤ 80%) | B (80%< substrate protein remaining %≤ 100%) | A (0% ≤ substrate protein remaining % ≤ 80%)
